Key:
[1] = humans; cited from earlier work
[2] = in vivo; cited from earlier work
[3] = 6-month regimen of sub-antibacterial doxycycline: cholesterol fractions in plasma of acute coronary syndrome patients with elevated baseline cholesterol; type: in vivo, human
Protocol: After six months, the cholesterol fractions were then measured (Table 1). Table 1: The Effect of a 6-Month Regimen of Sub-Antibacterial Doxycycline on Cholesterol Values in Plasma of Acute Coromary Syndrome Patients with Elevated Baseline Cholesterol

| SMILES | Effect on serum cholesterol [1] | Effect on serum cholesterol levels [2] | Change Due to Treatment, HDL/Cholesterol (Increase) ([3]; 6 months vs baseline, doxycycline 20 mg twice a day) [%] | Change Due to Treatment, LDL-Cholesterol (Reduction) ([3]; 6 months vs baseline, doxycycline 20 mg twice a day, p=0.033) [%] | Total Cholesterol, 6 Month Level ([3]; plasma, doxycycline 20 mg twice a day for six months, 3 patients on statins, baseline 231 ± 20) [mg %] | HDL-Cholesterol, 6 Month Level ([3]; plasma, doxycycline 20 mg twice a day for six months, baseline 48 ± 17) [mg %] | LDL-Cholesterol, 6 Month Level ([3]; plasma, doxycycline 20 mg twice a day for six months, baseline 155 ± 9) [mg %] | HDL/Cholesterol, 6 Month Level ([3]; ratio of HDL-cholesterol to total cholesterol, doxycycline 20 mg twice a day for six months, baseline 0.21) |
| --- | --- | --- | --- | --- | --- | --- | --- | --- |
| CN(C)[C@@H]1C(O)=C(C(N)=O)C(=O)[C@@]2(O)C(O)=C3C(=O)c4c(O)cccc4[C@@](C)(O)[C@H]3C[C@@H]12 [tetracycline] | no effect | reduce serum cholesterol levels |  |  |  |  |  |  |
| C[C@H]1c2cccc(O)c2C(=O)C2=C(O)[C@]3(O)C(=O)C(C(N)=O)=C(O)[C@@H](N(C)C)[C@@H]3[C@@H](O)[C@@H]21 [doxycycline] |  |  | 19 | 31 | 190 ± 20 | 48 ± 18 | 107 ± 12 | 0.25 |

From US6841547B2, “Method for decreasing low density lipoprotein” (Albert Einstein College of Medicine of Yeshevia University, priority 2003, dated 2005)
